Patent publication US20230151003A1, “COMPOUNDS AND METHODS OF USE” (Exelixis, Inc., priority 2020, published 2023)

Tests used:
[1] = molecular target: T1, Mer (Homo sapiens, UniProt Q12866); assay: Mer autophosphorylation ELISA in transient transfected 293A cells; type: cell-based; settings: Table 3 Cellular Activities; MERTK-transfected 293A cells, phospho-Mer ELISA
T1 construct: host or cells: 293A cells (Thermo Fisher #R70507)
T1 sequence (Q12866 21-999): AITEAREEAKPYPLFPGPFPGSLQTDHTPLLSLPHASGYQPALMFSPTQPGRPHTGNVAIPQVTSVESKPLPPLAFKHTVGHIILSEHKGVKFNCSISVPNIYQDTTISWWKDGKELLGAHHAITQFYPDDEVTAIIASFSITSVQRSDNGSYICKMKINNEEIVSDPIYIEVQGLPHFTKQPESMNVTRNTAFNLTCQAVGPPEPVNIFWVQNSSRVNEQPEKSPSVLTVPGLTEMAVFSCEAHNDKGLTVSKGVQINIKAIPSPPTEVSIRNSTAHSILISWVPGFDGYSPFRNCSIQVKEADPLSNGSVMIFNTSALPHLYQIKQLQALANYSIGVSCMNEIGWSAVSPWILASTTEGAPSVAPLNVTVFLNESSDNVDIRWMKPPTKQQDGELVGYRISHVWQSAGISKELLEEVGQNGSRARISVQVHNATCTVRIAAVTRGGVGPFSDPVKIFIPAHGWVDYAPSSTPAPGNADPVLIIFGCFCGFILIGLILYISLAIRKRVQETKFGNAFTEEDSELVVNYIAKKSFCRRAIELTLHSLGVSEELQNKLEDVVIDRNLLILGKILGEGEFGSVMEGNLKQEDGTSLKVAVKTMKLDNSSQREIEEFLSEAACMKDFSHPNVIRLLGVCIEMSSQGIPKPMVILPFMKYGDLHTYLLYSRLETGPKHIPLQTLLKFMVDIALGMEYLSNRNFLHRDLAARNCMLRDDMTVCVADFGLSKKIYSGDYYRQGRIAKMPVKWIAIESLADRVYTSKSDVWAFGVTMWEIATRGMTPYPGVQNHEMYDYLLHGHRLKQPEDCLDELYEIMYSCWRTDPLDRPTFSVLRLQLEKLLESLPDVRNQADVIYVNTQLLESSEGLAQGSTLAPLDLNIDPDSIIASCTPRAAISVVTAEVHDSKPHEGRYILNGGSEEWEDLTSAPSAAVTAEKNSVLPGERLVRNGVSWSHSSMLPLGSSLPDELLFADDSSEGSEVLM
In short: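 Phospho-Mer quantified by ELISA in lysates of transiently MERTK-transfected 293A cells after 1 h exposure to an 8-point compound series, serum-free, 0.3% DMSO. Activity normalized between DMSO-treated (100%) and reference inhibitor-treated (0%) lysates; IC50 via 4-parameter nonlinear regression.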

[2] = molecular target: KDR (Homo sapiens, UniProt P35968); assay: KDR autophosphorylation ELISA in HUVEC cells; type: cell-based; set-up: endogenous in cells; host or cells: HUVEC (Lonza #C2519A); settings: Table 3 Cellular Activities, VEGF165-stimulated, phospho-KDR ELISA
In short: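 HUVEC, 24 h serum-free starvation; cpd 8-pt dilution, 0.3% DMSO final, 1 h; VEGF165 100 ng/mL, 5 min; cold lysis; phospho-KDR ELISA; IC50, 4PL.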

Chain of KDR (P35968 20-1356): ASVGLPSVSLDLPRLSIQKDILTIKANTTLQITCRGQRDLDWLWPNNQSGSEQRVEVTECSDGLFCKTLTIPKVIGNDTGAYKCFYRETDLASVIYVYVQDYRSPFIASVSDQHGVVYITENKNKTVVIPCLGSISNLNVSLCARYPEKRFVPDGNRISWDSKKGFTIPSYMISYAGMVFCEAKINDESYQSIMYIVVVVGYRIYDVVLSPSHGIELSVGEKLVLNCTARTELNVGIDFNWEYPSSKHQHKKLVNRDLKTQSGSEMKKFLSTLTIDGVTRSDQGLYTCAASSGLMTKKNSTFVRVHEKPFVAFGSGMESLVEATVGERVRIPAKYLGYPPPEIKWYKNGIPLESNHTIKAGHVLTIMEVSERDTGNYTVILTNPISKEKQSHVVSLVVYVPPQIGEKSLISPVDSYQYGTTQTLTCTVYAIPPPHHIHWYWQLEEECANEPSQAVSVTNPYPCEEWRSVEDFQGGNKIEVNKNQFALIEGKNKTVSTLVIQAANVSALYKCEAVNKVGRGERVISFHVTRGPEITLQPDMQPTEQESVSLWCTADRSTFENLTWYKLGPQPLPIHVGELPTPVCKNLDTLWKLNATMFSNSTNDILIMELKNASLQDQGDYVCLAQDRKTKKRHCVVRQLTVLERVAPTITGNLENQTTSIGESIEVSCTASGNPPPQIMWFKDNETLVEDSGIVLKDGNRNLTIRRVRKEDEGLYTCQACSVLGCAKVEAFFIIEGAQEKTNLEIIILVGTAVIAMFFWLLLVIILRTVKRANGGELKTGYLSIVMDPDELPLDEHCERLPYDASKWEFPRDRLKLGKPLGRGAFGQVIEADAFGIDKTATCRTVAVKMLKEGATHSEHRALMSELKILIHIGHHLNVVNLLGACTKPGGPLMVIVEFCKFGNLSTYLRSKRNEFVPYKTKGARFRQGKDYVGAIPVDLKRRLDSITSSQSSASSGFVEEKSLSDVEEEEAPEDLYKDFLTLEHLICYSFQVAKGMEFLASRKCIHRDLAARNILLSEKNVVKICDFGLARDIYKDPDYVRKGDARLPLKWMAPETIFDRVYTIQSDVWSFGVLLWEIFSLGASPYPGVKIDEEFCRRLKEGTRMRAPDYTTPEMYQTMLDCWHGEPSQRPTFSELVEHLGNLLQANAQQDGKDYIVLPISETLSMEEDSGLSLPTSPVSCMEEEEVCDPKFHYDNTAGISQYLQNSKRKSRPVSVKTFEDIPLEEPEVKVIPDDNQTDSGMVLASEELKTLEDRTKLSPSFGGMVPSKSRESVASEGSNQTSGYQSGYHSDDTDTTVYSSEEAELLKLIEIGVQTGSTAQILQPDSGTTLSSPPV

| IC50 [1] | IC50 [2] | Structure (SMILES) |
| --- | --- | --- |
| ≤ 100 nM | ≤ 100 nM | COc1cnc2c(Oc3ccc(NC(=O)c4cnc(C)c(-c5ccco5)c4O)cc3F)ccnc2c1 [Compound 96, N-[3-Fluoro-4-[(7-methoxy-1,5-naphthyridin-4-yl)oxy]phenyl]-5-(2-furyl)-4-hydroxy-6-methyl-pyridine-3-carboxamide] |
| ≤ 100 nM | 300 to 1000 nM | COc1cnc2c(Oc3ccc(NC(=O)c4cn(CCF)c(C)c(-c5cccs5)c4=O)cc3F)ccnc2c1 [Compound 331, 1-(2-Fluoroethyl)-N-[3-fluoro-4-[(7-methoxy-1,5-naphthyridin-4-yl)oxy]phenyl]-6-methyl-4-oxo-5-thiophen-2-ylpyridine-3-carboxamide] |
| ≤ 100 nM | ≤ 100 nM | COc1cc2nccc(Oc3ccc(NC(=O)c4c(C)nc(C)c(-c5ccc(C)o5)c4O)cc3F)c2nc1OC [Compound 110, N-[4-[(6,7-Dimethoxy-1,5-naphthyridin-4-yl)oxy]-3-fluoro-phenyl]-4-hydroxy-2,6-dimethyl-5-(5-methyl-2-furyl)pyridine-3-carboxamide] |
| ≤ 100 nM | ≤ 100 nM | C=C(C)c1ccc(-c2c(C)ncc(C(=O)Nc3ccc(Oc4ccnc5cc(OC)c(OC)nc45)c(F)c3)c2O)o1 [Compound 152, N-[4-[(6,7-Dimethoxy-1,5-naphthyridin-4-yl)oxy]-3-fluorophenyl]-4-hydroxy-6-methyl-5-(5-prop-1-en-2-ylfuran-2-yl)pyridine-3-carboxamide] |
| ≤ 100 nM | 300 to 1000 nM | COc1cnc2c(Oc3ccc(NC(=O)c4c(C)n(C)c(C)c(-c5cccs5)c4=O)cc3F)ccnc2c1 [Compound 166, N-[3-Fluoro-4-[(7-methoxy-1,5-naphthyridin-4-yl)oxy]phenyl]-1,2,6-trimethyl-4-oxo-5-thiophen-2-ylpyridine-3-carboxamide] |
| ≤ 100 nM | ≤ 100 nM | COc1cc2nccc(Oc3ccc(NC(=O)c4c(C)nc(C)c(-c5cc(C)nn5C)c4O)cc3F)c2nc1OC [Compound 109, N-[4-[(6,7-Dimethoxy-1,5-naphthyridin-4-yl)oxy]-3-fluoro-phenyl]-5-(2,5-dimethylpyrazol-3-yl)-4-hydroxy-2,6-dimethyl-pyridine-3-carboxamide] |
| ≤ 100 nM | ≤ 100 nM | COc1cc2nccc(Oc3ccc(NC(=O)c4cnc(C)c(-c5sccc5C)c4O)cc3F)c2nc1OC [Compound 103, N-[4-[(6,7-Dimethoxy-1,5-naphthyridin-4-yl)oxy]-3-fluoro-phenyl]-4-hydroxy-6-methyl-5-(3-methyl-2-thienyl) pyridine-3-carboxamide] |
| ≤ 100 nM | ≤ 100 nM | COCc1nc(C)c(-c2ccccn2)c(O)c1C(=O)Nc1ccc(Oc2ccnc3cc(OC)c(OC)nc23)c(F)c1 [Compound 195, N-[4-[(6,7-Dimethoxy-1,5-naphthyridin-4-yl)oxy]-3-fluorophenyl]-4-hydroxy-2-(methoxymethyl)-6-methyl-5-pyridin-2-ylpyridine-3-carboxamide] |
| ≤ 100 nM | ≤ 100 nM | COc1cc2nccc(Oc3ccc(NC(=O)c4c(C)nc(C)c(-c5ccc(C(C)C)o5)c4O)cc3F)c2nc1OC [Compound 148, N-[4-[(6,7-Dimethoxy-1,5-naphthyridin-4-yl)oxy]-3-fluorophenyl]-4-hydroxy-2,6-dimethyl-5-(5-propan-2-ylfuran-2-yl)pyridine-3-carboxamide] |
| ≤ 100 nM | ≤ 100 nM | COc1cc2nccc(Oc3ccc(NC(=O)c4cnc(C)c(-c5ccc(C)o5)c4O)cc3F)c2nc1OC [Compound 92, N-[4-[(6,7-Dimethoxy-1,5-naphthyridin-4-yl)oxy]-3-fluoro-phenyl]-4-hydroxy-6-methyl-5-(5-methyl-2-furyl)pyridine-3-carboxamide] |
| ≤ 100 nM | ≤ 100 nM | COc1cc2nccc(Oc3ccc(NC(=O)c4cnc(C)c(-c5ccco5)c4O)cc3F)c2nc1OC [Compound 89, N-[4-[(6,7-Dimethoxy-1,5-naphthyridin-4-yl)oxy]-3-fluorophenyl]-5-(furan-2-yl)-4-hydroxy-6-methylpyridine-3-carboxamide] |
| ≤ 100 nM | ≤ 100 nM | COc1cc2nccc(Oc3ccc(NC(=O)c4cnc(C)c(-c5cncs5)c4O)cc3F)c2nc1OC [Compound 141, N-[4-[(6,7-Dimethoxy-1,5-naphthyridin-4-yl)oxy]-3-fluorophenyl]-4-hydroxy-6-methyl-5-(1,3-thiazol-5-yl)pyridine-3-carboxamide] |
| ≤ 100 nM | ≤ 100 nM | COc1cc2nccc(Oc3ccc(NC(=O)c4c(C)nc(C)c(-c5sccc5C)c4O)cc3F)c2nc1OC [Compound 139, N-[4-[(6,7-Dimethoxy-1,5-naphthyridin-4-yl)oxy]-3-fluorophenyl]-4-hydroxy-2,6-dimethyl-5-(3-methylthiophen-2-yl)pyridine-3-carboxamide] |
| ≤ 100 nM | ≤ 100 nM | COc1cc2nccc(Oc3ccc(NC(=O)c4c(C)ncc(-c5ccc(C)o5)c4O)cc3F)c2nc1OC [Compound 120, N-[4-[(6,7-Dimethoxy-1,5-naphthyridin-4-yl)oxy]-3-fluorophenyl]-4-hydroxy-2-methyl-5-(5-methylfuran-2-yl)pyridine-3-carboxamide] |
| ≤ 100 nM | ≤ 100 nM | COc1cc2nccc(Oc3ccc(NC(=O)c4cnc(C)c(-c5ccnn5C)c4O)cc3F)c2nc1OC [Compound 104] |
| ≤ 100 nM | ≤ 100 nM | COc1cc2nccc(Oc3ccc(NC(=O)c4c(C)ncc(-c5cc(C)cs5)c4O)cc3F)c2nc1OC [Compound 125, N-[4-[(6,7-Dimethoxy-1,5-naphthyridin-4-yl)oxy]-3-fluorophenyl]-4-hydroxy-2-methyl-5-(4-methylthiophen-2-yl)pyridine-3-carboxamide] |
| ≤ 100 nM | ≤ 100 nM | COCc1nc(C)c(-c2ccc(C)o2)c(O)c1C(=O)Nc1ccc(Oc2ccnc3cc(OC)c(OC)nc23)c(F)c1 [Compound 117, N-[4-[(6,7-Dimethoxy-1,5-naphthyridin-4-yl)oxy]-3-fluorophenyl]-4-hydroxy-2-(methoxymethyl)-6-methyl-5-(5-methylfuran-2-yl)pyridine-3-carboxamide] |
| ≤ 100 nM | ≤ 100 nM | COc1cc2nccc(Oc3ccc(NC(=O)c4c(C)ncc(-c5ccsc5)c4O)cc3F)c2nc1OC [Compound 127, N-[4-[(6,7-Dimethoxy-1,5-naphthyridin-4-yl)oxy]-3-fluorophenyl]-4-hydroxy-2-methyl-5-thiophen-3-ylpyridine-3-carboxamide] |
| ≤ 100 nM | 100 to 300 nM | COc1cc2nccc(Oc3ccc(NC(=O)c4c(C)n(C)c(C)c(-c5ccco5)c4=O)cc3F)c2nc1OC [Compound 160, N-[4-[(6,7-Dimethoxy-1,5-naphthyridin-4-yl)oxy]-3-fluorophenyl]-5-(furan-2-yl)-1,2,6-trimethyl-4-oxopyridine-3-carboxamide] |
| ≤ 100 nM | ≤ 100 nM | COc1cc2nccc(Oc3ccc(NC(=O)c4c(C)nc(C)c(-c5ccsc5)c4O)cc3F)c2nc1OC [Compound 106] |
| ≤ 100 nM | 100 to 300 nM | COc1cc2nccc(Oc3ccc(NC(=O)c4cn(CCF)c(C)c(-c5ccco5)c4=O)cc3F)c2nc1OC [Compound 333, N-[4-[(6,7-Dimethoxy-1,5-naphthyridin-4-yl)oxy]-3-fluorophenyl]-1-(2-fluoroethyl)-5-(furan-2-yl)-6-methyl-4-oxopyridine-3-carboxamide] |
| ≤ 100 nM | 300 to 1000 nM | COc1cc2nccc(Oc3ccc(NC(=O)c4c(C)n(C)c(C)c(-c5ccco5)c4=O)cc3)c2nc1OC [Compound 164, N-[4-[(6,7-Dimethoxy-1,5-naphthyridin-4-yl)oxy]phenyl]-5-(furan-2-yl)-1,2,6-trimethyl-4-oxopyridine-3-carboxamide] |
| ≤ 100 nM | ≤ 100 nM | COc1cc2nccc(Oc3ccc(NC(=O)c4c(C)nc(C)c(-c5ccc(C6CC6)o5)c4O)cc3F)c2nc1OC [Compound 155B, 5-(5-Cyclopropylfuran-2-yl)-N-[4-[(6,7-dimethoxy-1,5-naphthyridin-4-yl)oxy]-3-fluorophenyl]-4-hydroxy-2,6-dimethylpyridine-3-carboxamide] |
